From ChEMBL document CHEMBL3886297, “Cinnamoyl inhibitors of transglutaminase” (2015)

Target: T1, Protein-glutamine gamma-glutamyltransferase 2 (Cavia cutleri, UniProt P08587)
T1 sequence (P08587 whole entry): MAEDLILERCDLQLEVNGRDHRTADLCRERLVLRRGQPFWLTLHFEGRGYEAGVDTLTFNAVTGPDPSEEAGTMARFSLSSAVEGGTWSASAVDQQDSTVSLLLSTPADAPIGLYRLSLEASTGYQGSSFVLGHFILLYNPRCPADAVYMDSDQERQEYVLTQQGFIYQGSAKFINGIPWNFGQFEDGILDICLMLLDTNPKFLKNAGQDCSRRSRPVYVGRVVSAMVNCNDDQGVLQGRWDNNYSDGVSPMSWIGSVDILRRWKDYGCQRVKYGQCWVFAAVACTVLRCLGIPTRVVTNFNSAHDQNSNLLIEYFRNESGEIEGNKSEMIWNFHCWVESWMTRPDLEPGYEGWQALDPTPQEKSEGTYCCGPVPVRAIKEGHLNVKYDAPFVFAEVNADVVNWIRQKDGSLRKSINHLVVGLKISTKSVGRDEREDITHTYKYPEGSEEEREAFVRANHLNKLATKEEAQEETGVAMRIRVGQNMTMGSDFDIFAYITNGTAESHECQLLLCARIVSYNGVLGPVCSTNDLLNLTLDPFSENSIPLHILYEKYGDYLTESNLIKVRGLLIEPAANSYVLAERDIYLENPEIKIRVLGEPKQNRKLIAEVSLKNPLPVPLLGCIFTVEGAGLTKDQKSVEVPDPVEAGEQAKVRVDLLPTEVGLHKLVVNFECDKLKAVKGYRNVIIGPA
Experiment: Enzyme Inhibition Assay: For enzymology studies of these compounds, recombinant guinea pig liver TGase was expressed in Escherichia coli and effectively purified (Gillet, S. M. F. G. et al J. N., Prot. Exp. & Purif. 2004, 33, 256). […] The mode of inhibition was determined for the representative lead compound.

Compound | IC50 [µM]
O=C(/C=C/c1ccc([N+](=O)[O-])cc1)n1ccnc1 | > 20
O=C(/C=C/c1ccc([N+](=O)[O-])cc1)NCc1ccccc1 | > 50
